Data taken from paper PMC8764033, “Single-molecule analysis of specificity and multivalency in binding of short linear substrate motifs to the APC/C” (Nature Communications, 2022).
Where “and” joins values, the source holds several entries; their conditions need not be identical. Equal values may be shown once. Read-outs that look alike come from different tables or passages of the source. Where a SMILES comes first, the peptide text is derived from it.

Target: T1, APC/C^Cdh1 (Saccharomyces cerevisiae, UniProt P53068+P53197)
T1 construct: APC/C was purified from yeast cells; made in house; host or cells: APC/C from S. cerevisiae W303 strain NHY13 (Cdc16-TAP, Apc1-GFP, cdh1 deleted); Cdh1 from Sf9 (baculovirus)
Format: binding
Conditions: for mean dwell time: representative of two independent experiments, ± SE, ligand ≤1 nM, buffer C + BSA
Description: Yeast strains were derivatives of W303 and are listed in Supplementary Table 2. For APC/C purification, we used a strain carrying Cdc16-TAP and lacking Cdh1 (DOM1126); in most experiments, the strain also carried Apc1-GFP (NHY13). Yeast were grown in YPD media to OD600 = 0.8, collected and flash-frozen. Cells were lysed by bead beating in lysis buffer A (50 mM HEPES pH 7.5, 150 mM KCl, 10% glycerol, 0.2% Triton X-100, 63 µM B-glycerophosphate, 48 µM sodium fluoride, 1 µg ml^−1 pepstatin A, 1 µg ml^−1 leupeptin, 1 µg ml^−1 aprotinin, 1 mM PMSF, 1 mM DTT, 0.5 mM EDTA) and APC/C was purified using magnetic IgG beads. The beads were washed using wash buffer A (20 mM HEPES pH 7.5, 150 mM KCl, 10% Glycerol, 0.05% Triton X-100). After incubation with purified Cdh1 or Cdc20, the APC/C was cleaved off the beads with TEV protease in wash buffer A with 0.05% Tween-20 (for single-molecule studies) or 0.05% Triton X-100 (for ensemble assays such as ubiquitylation) and used immediately.
For all SMOR experiments, 24 × 50 mm high precision glass coverslips (Bioscience Tools) and drilled microscope slides were passivated with a combination of PEG and PEG-biotin (coverslips) or PEG only (slides) following a previously published protocol for SiMPull[31]. Reaction chambers (~20 µl) were created using double-sided tape and epoxy. Protein was immobilized on the surface with 0.2 mg ml^−1 NeutrAvidin in buffer C (20 mM HEPES pH 7.5, 150 mM KCl, 10% glycerol, 0.05% Tween-20, 1 mM DTT). Excess NeutrAvidin was washed away and incubated with either biotin-conjugated mouse monoclonal anti-Strep-Tag II antibody (LSBio, Cat. No. LS-C203632-100) or biotin-conjugated rabbit polyclonal anti-GFP antibody (Rockland, Cat. No. 600-406-215) diluted in buffer C + BSA (0.1 mg ml^−1; Molecular Biology Grade Bovine Serum Albumin). Activator WD40 and activated APC/C (typically 50 µl containing about 65 ng APC/C, of which only a small fraction is immobilized on the glass) were immobilized using anti-Strep-Tag II, while APC/C alone was immobilized with anti-GFP. SMOR results were similar when performed in the buffer (wash buffer B) used in polarization anisotropy.
To capture dynamic protein–protein interactions, dye-labeled substrate diluted in buffer C + BSA was added to the chamber containing immobilized proteins. Interactions were imaged by TIRF microscopy as described below. For optimal signal-to-noise ratio, peptide concentration was no greater than 1 nM. Protein substrates included Hsl1 aa 667–872 and a C-terminal HaloTag followed by a TAP tag, and were produced by translation in rabbit reticulocyte lysates using TnT Quick Coupled Transcription/Translation System (Promega) (see Supplementary Table 5 for plasmids). Protein was purified with magnetic IgG beads and labeled on the bead with JF549 or JF646 dye so that unbound dye could be washed away. Purified dye-labeled protein was then cleaved from the beads using TEV protease. Before adding substrate to the reaction chamber, oxygen scavenging reagents were added (10 nM protocatechuate-3,4-dioxygenase, 2.5 mM protocatechuic acid, and 1 mM Trolox)[41]. A detailed description of the SMOR analysis pipeline is found in Supplementary Note 1.
Microscopy was performed with a Nikon Eclipse TE2000-E with Perfect Focus with a 100 × 1.49na oil, Apo TIRF DIC N2, 0.13-0.2, WD0.12 objective. Movies were recorded using the Andor iXon DU-897E-CSO. For visualizing GFP-tagged protein, a 491 nm laser was used with an ET525/50 (Chroma) filter for emission. For visualizing JF549-labeled substrate, a 561 nm laser was used with an ET595/50 (Chroma) filter for emission. For visualizing all Cy5-labeled peptides and JF646-labeled substrates, a 640 nm laser was used with an ET685/70 filter (Chroma) for emission. Initially, for each substrate tested, we acquired movies at multiple intervals to deduce the optimal interval to decrease bleaching. µManager version 2.0 was used to control the microscope and record time-lapse movies.

[1] = Supplementary Table 1, replicate 1
[2] = Supplementary Table 1, replicate 2
[3] = Supplementary Table 1, replicate 1 (movie listed first)
[4] = Supplementary Table 1, replicate 2 (movie listed second)

Molecule	binding (in words)	Dwell Time (in words) [1]	Dwell Time (in words) [2]	Dwell Time [3]	Dwell Time [4]	mean dwell time
LPKATRKALGTVNRATEKSVK-K(Cy5) [AurKB D box, Cy5-labeled D box peptide of Aurora B kinase]	No binding	no binding	no binding	–	–	–
CC[C@H](C)[C@H](NC(=O)[C@H](CC(=O)O)NC(=O)[C@H](CO)NC(=O)[C@H](C)NC(=O)[C@H](C)NC(=O)[C@H](C)NC(=O)[C@H](C)NC(=O)[C@H](CCCCN)NC(=O)[C@@H]1CCCN1C(=O)[C@H](CCCCN)NC(=O)[C@H](CCC(N)=O)NC(=O)[C@@H](N)CCC(=O)O)C(=O)N[C@H](C(=O)N[C@@H](C)C(=O)N[C@@H](CO)C(=O)N[C@@H](Cc1ccccc1)C(=O)N[C@@H](CC(N)=O)C(=O)N[C@@H](CCCCN)C(=O)N[C@@H](CCSC)C(=O)N[C@@H](CC(N)=O)C(=O)N[C@@H](CCCCN)C(=O)O)[C@@H](C)O [Hsl1 D box mutant] (H-EQKPKAAAASDITASFNKMNK-OH; N-terminus and C-terminus assumed)	No binding	no binding	–	–	–	–
CC[C@H](C)[C@H](NC(=O)[C@H](Cc1ccccc1)NC(=O)[C@H](CO)NC(=O)[C@H](CCCCN)NC(=O)[C@H](CO)NC(=O)[C@H](CCCNC(=N)N)NC(=O)[C@H](CC(N)=O)NC(=O)[C@H](CC(N)=O)NC(=O)[C@H](CC(=O)O)NC(=O)[C@H](CCCCN)NC(=O)[C@H](C)NC(=O)[C@H](C)NC(=O)[C@H](CC(C)C)NC(=O)[C@@H]1CCCN1C(=O)[C@H](CC(C)C)NC(=O)[C@H](CCCNC(=N)N)NC(=O)CNC(=O)[C@H](CCC(N)=O)NC(=O)[C@H](CCC(N)=O)NC(=O)[C@H](CCC(N)=O)NC(=O)[C@H](C)N)C(=O)N[C@@H](CCCCN)C(=O)O [ySecurin D box] (H-AQQQGRLPLAAKDNNRSKSFIK-OH; N-terminus and C-terminus assumed)	–	–	–	0.132 ± 0.002 s	0.121 ± 0.006 s	0.132 ± 0.002 s and 0.132 s
LIYVDKENGEPGTR-K(Cy5) [hSecurin KEN, Cy5-labeled KEN box peptide of human securin/Pttg1]	No binding	no binding	no binding	–	–	–
CC(C)C[C@H](NC(=O)[C@H](C)NC(=O)[C@H](CCCNC(=N)N)NC(=O)[C@H](CCCNC(=N)N)NC(=O)[C@@H]1CCCN1C(=O)[C@H](CCCCN)NC(=O)[C@H](CO)NC(=O)[C@H](CC(=O)O)NC(=O)[C@@H](N)CCC(N)=O)C(=O)N[C@H](C(=O)N[C@@H](CC(=O)O)C(=O)N[C@H](C(=O)N1CCC[C@H]1C(=O)N[C@H](C(=O)N[C@@H](CC(N)=O)C(=O)N[C@@H](CC(N)=O)C(=O)N[C@@H](CC(N)=O)C(=O)N1CCC[C@H]1C(=O)N[C@@H](CC(C)C)C(=O)N[C@@H](CO)C(=O)N[C@@H](CCC(N)=O)C(=O)N[C@@H](CCCCN)C(=O)O)C(C)C)C(C)C)[C@@H](C)O [Clb5 D box] (H-QDSKPRRALTDVPVNNNPLSQK-OH; N-terminus and C-terminus assumed)	–	–	–	0.146 ± 0.007 s	0.159 ± 0.004 s	0.159 ± 0.004 s and 0.159 s
SKAAQFMLYEETAEERNI-K(Cy5) [Acm1 ABBA, Cy5-labeled Cdh1-specific ABBA motif from pseudosubstrate yeast protein Acm1]	No binding	no binding	no binding	–	–	–
